Earlier results in patent US4988517A, “Method and composition for inhibiting colon carcinogenesis” (American Health Foundation, priority 1988, dated 1991).

How the values were obtained:
[1] = 6 ppm selenium in the form of selenomethionine; cited from earlier work
[2] = rat, in vivo; cited from earlier work
colon carcinogenesis = details: initiation phase; cited from earlier work
[3] = system: cancer induced by a variety of chemical carcinogens; details: diet or drinking water; colon, mammary gland, pancreas; cited from earlier work

Row | Compound | Liver damage [1] | Toxicity relative to BSC [2] | Inhibition of colon carcinogenesis (colon carcinogenesis) | Protection against cancer induction [3]
1 | C[Se]CC[C@H](N)C(=O)O [selenomethionine] | caused liver damage as indicated by extensive necrosis and fibrosis |  |  | 
2 | O=[Se](O)O [sodium selenite] |  | more toxic than BSC | does not inhibit colon carcinogenesis during the initiation phase | protects against cancer induced by a variety of chemical carcinogens
